Results: patent US11434227B2, “Broad spectrum antibacterial activity of novel bisbenzimidazoles targeting topoisomerase IA and the synergistic composition of bisbenzimidazole with efflux pump inhibitors against pathogenic bacteria” (Jawaharlal Nehru University (JNU), priority 2016, dated 2022)

Legend:
Assay in all cases: HN12b in combination with efflux pump inhibitors (CB method, FICI)
Enterococcus sp. (1121) = test system: Enterococcus sp. (1121)
Protocol: (§1) 96-well microtiter plates containing MIC25 concentrations of the Efflux pump inhibitor (CCCP, PAβN) and HN12b antimicrobial drugs alone and in CB combination were used. The MICs of the individual drugs HN12b, PAβN and CCCP (0.25 to 128 μg/ml) and of the combinations were determined using the broth microdilution technique as recommended by the CLSI. Briefly, the broth microdilution plates were inoculated with each test organism to yield the appropriate density (10^5 CFU/ml) in 100 μl Mueller-Hinton broth (MHB) and incubated for 24 h at 37° C. in ambient air. One well with no antibiotic was used as a positive growth control on each plate. Plates were read for visual turbidity, and results were recorded after 24 h of incubation at 37° C. in ambient air by using a magnifying mirror reader, as turbidity in wells indicated growth of the microorganism. The MIC was determined as the well in the microtiter plate with the lowest drug concentration at which there was no visible growth. […] MICAB was defined as the MIC of drug A in the presence of drug B; MICBA was defined as the MIC of drug B in the presence of drug A.
(§2) The fractional inhibitory concentration index (FICI) was calculated for each antibiotic in each combination by using the following formula: FICA+FICB=FICI, where FICA equals the MIC of drug A in combination divided by the MIC of drug A alone and FICB equals the MIC of drug B in combination divided by the MIC of drug B alone. The FICIs were interpreted as follows: FICI of ≤0.5 will correspond to synergy; FICI of >0.5 to ≤1 will correspond to additivity; FICI of >1 to ≤4 will correspond to no interaction (indifference), and FICI of >4 will correspond antagonism.

E. coli ATCC25922 = test system: E. coli ATCC25922
Protocol: as §1, §2

Enterococcus sp. (2105) = test system: Enterococcus sp. (2105)
Protocol: as §1, §2

P. aeruginosa (MTCC1688) = test system: P. aeruginosa (MTCC1688)
Protocol: as §1, §2

Providencia sp. (P592) = test system: Providencia sp. (P592)
Protocol: as §1, §2

P. aeruginosa (Ps 366) = test system: P. aeruginosa (Ps 366)
Protocol: as §1, §2

[1] = test system: K. planticola (MTCC 2272)
Protocol: as §1, §2

E. coli KK45 = test system: E. coli KK45
Protocol: as §1, §2

K. planticola (1164) = test system: K. planticola (1164)
Protocol: as §1, §2

A. baumannii (MTCC1920) = test system: A. baumannii (MTCC1920)
Protocol: as §1, §2

[2] = test system: Providencia sp. (MTCC 2102)
Protocol: as §1, §2

A. baumannii (AB387) = test system: A. baumannii (AB387)
Protocol: as §1, §2

**Q.** Which “(BA) MIC90” value (Enterococcus sp. (1121); Enterococcus sp. (1121), PAβN in presence of HN12b) does the source give for “phenylalanine-arginine-β-naphthylamide [PAβN, reference compound]” here?
**A.** 63 µg/mL

**Q.** What about the MIC90 (Enterococcus sp. (1121); Enterococcus sp. (1121), single drug alone (A, B, C)) of the same molecule?
**A.** >128 µg/mL

**Q.** What about the “(BA) MIC90” value (E. coli ATCC25922; E. coli ATCC25922, PAβN in presence of HN12b) of the same molecule?
**A.** 4.8 µg/mL

**Q.** And the MIC90 (E. coli ATCC25922; E. coli ATCC25922, single drug alone (A, B, C))?
**A.** 64 µg/mL

**Q.** And the “(BA) MIC90” value (Enterococcus sp. (2105); Enterococcus sp. (2105), PAβN in presence of HN12b)?
**A.** 59 µg/mL

**Q.** What about the MIC90 (Enterococcus sp. (2105); Enterococcus sp. (2105), single drug alone (A, B, C)) of the same molecule?
**A.** >128 µg/mL

**Q.** What about the “(BA) MIC90” value (P. aeruginosa (MTCC1688); P. aeruginosa (MTCC1688), PAβN in presence of HN12b) of the same molecule?
**A.** 60 µg/mL

**Q.** And the MIC90 (P. aeruginosa (MTCC1688); P. aeruginosa (MTCC1688), single drug alone (A, B, C))?
**A.** 123 µg/mL

**Q.** And the “(BA) MIC90” value (Providencia sp. (P592); Providencia sp. (P592), PAβN in presence of HN12b)?
**A.** 38 µg/mL

**Q.** And the MIC90 (Providencia sp. (P592); Providencia sp. (P592), single drug alone (A, B, C))?
**A.** >128 µg/mL

**Q.** What about the “(BA) MIC90” value (P. aeruginosa (Ps 366); P. aeruginosa (Ps 366), PAβN in presence of HN12b) of the same molecule?
**A.** 55 µg/mL

**Q.** And the MIC90 (P. aeruginosa (Ps 366); P. aeruginosa (Ps 366), single drug alone (A, B, C))?
**A.** 120.2 µg/mL

**Q.** What about the “(BA) MIC90” value ([1]; K. planticola (MTCC 2272), PAβN in presence of HN12b) of the same molecule?
**A.** 62 µg/mL

**Q.** What about the MIC90 ([1]; K. planticola (MTCC 2272), single drug alone (A, B, C)) of the same molecule?
**A.** >128 µg/mL

**Q.** And the “(BA) MIC90” value (E. coli KK45; E. coli KK45, PAβN in presence of HN12b)?
**A.** 10 µg/mL

**Q.** What about the “(BA) MIC90” value (K. planticola (1164); K. planticola (1164), PAβN in presence of HN12b) of the same molecule?
**A.** 62 µg/mL

**Q.** What about the MIC90 (K. planticola (1164); K. planticola (1164), single drug alone (A, B, C)) of the same molecule?
**A.** >128 µg/mL

**Q.** What about the “(BA) MIC90” value (A. baumannii (MTCC1920); A. baumannii (MTCC1920), PAβN in presence of HN12b) of the same molecule?
**A.** 59 µg/mL

**Q.** What about the MIC90 (A. baumannii (MTCC1920); A. baumannii (MTCC1920), single drug alone (A, B, C)) of the same molecule?
**A.** >128 µg/mL

**Q.** What about the “(BA) MIC90” value ([2]; Providencia sp. (MTCC 2102), PAβN in presence of HN12b) of the same molecule?
**A.** 58 µg/mL

**Q.** What about the MIC90 ([2]; Providencia sp. (MTCC 2102), single drug alone (A, B, C)) of the same molecule?
**A.** >128 µg/mL

**Q.** And the “(BA) MIC90” value (A. baumannii (AB387); A. baumannii (AB387), PAβN in presence of HN12b)?
**A.** 32 µg/mL

**Q.** And the MIC90 (A. baumannii (AB387); A. baumannii (AB387), single drug alone (A, B, C))?
**A.** >128 µg/mL

**Q.** What does the source list for N#CC(C#N)=NNc1cccc(Cl)c1 [CCCP, carbonyl cyanide-m-chlorophenyl hydrazone, reference compound]?
**A.** MIC90 (Enterococcus sp. (1121); Enterococcus): 16.2 µg/mL; MIC90 (E. coli ATCC25922; Escherichia coli, ATCC25922): 11.8 µg/mL; MIC90 (Enterococcus sp. (2105); Enterococcus): 27.7 µg/mL; MIC90 (P. aeruginosa (MTCC1688); Pseudomonas aeruginosa, MTCC1688): 128 µg/mL; MIC90 (Providencia sp. (P592); Providencia): 67.2 µg/mL; MIC90 (P. aeruginosa (Ps 366); Pseudomonas aeruginosa): 128 µg/mL; MIC90 ([1]; Klebsiella planticola, MTCC2272): 13.9 µg/mL; MIC90 (E. coli KK45; Escherichia coli, KK45): 12.3 µg/mL; MIC90 (K. planticola (1164); Klebsiella planticola): 14.7 µg/mL; MIC90 (A. baumannii (MTCC1920); Acinetobacter baumannii, MTCC1920): 30.2 µg/mL; MIC90 ([2]; Providencia, MTCC2102): 10.9 µg/mL; MIC90 (A. baumannii (AB387); Acinetobacter baumannii): 12 µg/mL
